Measured values reported in BindingDB's records for doi:10.1021/jm970141k (University of North Texas, 1997).

Assay: In vitro inhibition of Acetylcholinesterase Activity in octopus brain

CCCCCSC(=O)OCC[N+](C)(C)C [Trimethyl-(2-pentylsulfanylcarbonyloxy-ethyl)-ammonium; chloride]
Ki: 2000 nM
